Drawing on patent publication US7820697B2, “Compositions and method for reducing TNFα levels” (Celgene Corporation, priority 1998, dated 2010), this text covers melting point for three molecules.

The structures appear in SMILES notation.

Broadly, the melting point is the temperature, or range, at which the solid turns liquid. The molecule `CCc1cccc2c1C(=O)N(C1CCC(=O)NC1=O)C2=O` (stereo not drawn) [Example 6, 2-(2,6-Dioxo(3-piperidyl))-4-ethylisoindoline-1,3-dione] came in with a melting point of 235 to 236.5 °C.
On to `CN(C)c1cccc2c1C(=O)N(C1CCC(=O)NC1=O)C2=O` (stereo not drawn) [Example 8, 4-Dimethylamino-2-(2,6-dioxo(3-piperidyl))isoindoline-1,3-dione], for which the melting point was in the range of 214.5 to 216.5 °C.
The value for `Cc1cccc2c1C(=O)N(C1(C)CCC(=O)NC1=O)C2=O` (stereo not drawn) [Example 10, 4-Methyl-2-(2,6-dioxo-3-methyl-(3-piperidyl))isoindoline-1,3-dione] was 248 to 250 °C.
